The text below walks through data of patent US11951100B2, “Formulations of RBP4 inhibitors and methods of use” (Belite Bio, LLC, priority 2019, dated 2024).

Values after ≈ are worked out from the molar mass of the structure shown.

The test system of data set [1] is Abcd4/rdh8 double knockout mice. As to the kind of experiment: Abcd4/rdh8 double knockout mouse model of macular degeneration. The class given is in vivo. The source says: FIG. 2 is a graph of bisretinoid A2E (pmol in the eye) and RBP4 (serum) levels for ABCA4−/−RDH8−/− mice either untreated, treated with vehicle, or treated with Compound 1.
FIG. 3 is a graph of outer nuclear layer (ONL) thickness (μm) as a function of distance (μm) from the optic nerve (ONH). ONL is the cell layer consisting of photoreceptor cell bodies (rods and cones). Dry AMD or STGD is often associated with thinning of the ONL and the loss of photoreceptor cells, indicating macular degeneration.
Abcd4/rdh8 double knockout mice were either untreated or treated with Compound 1. Wild type C57BL/6J mice were also used as a normal control. […] (FIG. 2). Diseases such as dry AMD or Stargardt are associated with thinning of the outer nuclear layer (ONL) of the eye and the loss of photoreceptor cells, indicating macular degeneration.

Data set [2] in a line: Melt-quench modulated DSC of Compound 1. In kind it is physicochemical. On the procedure: A sample of Compound 1 was analyzed by Modulated Differential Scanning Calorimetry using a TA Discovery DSC2500 with RCS90 chiller according to standard instrument procedures provided by manufacturer. Parameters used for the analysis are shown below in Table 4. Two replicates of the experiment were run with reproducible results. The resulting thermogram, shown in FIG. 10C, indicates a glass transition temperature (Tg) of about 93° C., a crystallization temperature (Tc) of about 136° C., and a Tm/Tg ratio of 1.37. The Tm/Tg ratio of 1.37 is indicative of moderate physical stability. Without being bound by theory, the Te observed quickly after Compound 1 entering a rubbery state was indicative of a propensity to crystallize. [table]

Data set [3] can be described thus: Estimated solubility by solvent aliquot addition, visual inspection. The class given is physicochemical. To be noted: thermodynamic from solid. On the procedure:
Solubilities of Compound 1 in a few solvents were estimated. The experiments were carried out by adding the test solvent in aliquots to weighed portions of solid. Whether dissolution had occurred was judged by visual inspection after addition of each solvent aliquot. Solubility numbers were calculated by dividing the total amount of solvent used to dissolve the sample by the weight of the sample. The actual solubilities may be greater than the numbers calculated because of the use of solvent aliquots that were too large or because of slow dissolution rates. […] The solubility number is expressed as “greater than or equal to” if dissolution occurred on addition of the first solvent aliquot.

The test system of another data set is Caco-2 monolayers. Description: Permeability through Caco-2 monolayers. In kind it is in vitro ADME. As for the experimental part: Several biopharmaceutically relevant parameters of the API (Compound 1) were obtained for the API. […] Based on these two biopharmaceutical parameters, this compound is possibly a BCS Class II. Solubility enhancement is critical for bioavailability of the API for dosing. Therefore, to overcome the limitation from solubility, several experiments were conducted to assess various solubility enhancement approaches utilized in formulation development
(In general: Caco-2 monolayers are a common model of the intestinal barrier.)

The nature of data set [4]: Chemical stability at elevated temperatures (DSC heating, HPLC). The class given is physicochemical. To be noted: Form C batch heated in DSC to a variety of temperatures and holding times. On the procedure: The API was heated to a variety of temperatures with several holding time periods in DSC. The resulted solids in DSC pan were extracted with DMSO. The solutions of API were prepared and injected into HPLC for determination of assay and related substances. […] One of possible solution to the API degradation in hot-melt extrusion might be the addition of a plasticizer which may lower the process temperature for maintaining chemical integrity of the API.

Setting [5] is: treated vs untreated Abcd4/rdh8 double knockout mice.

For `CC(=O)N1CCc2c(C(=O)N3CCC(c4ccc(F)c(F)c4C(F)(F)F)CC3)n[nH]c2C1` [Compound 1, 1-(3-(4-(3,4-difluoro-2-(trifluoromethyl)phenyl)piperidine-1-carbonyl)-1,4,5,7-tetrahydro-6H-pyrazolo[3,4-c]pyridin-6-yl)ethan-1-one], in data set [1] (bisretinoid A2E in the eye, ABCA4−/−RDH8−/− mice treated with Compound 1, p=0.003, unpaired t-test), the “reduction in bisretinoid accumulation” value was 80%. In data set [1] (diseased group treated with Compound 1 vs diseased group), the “outer nuclear layer (ONL) thickness” value is given as “preserved”. Further, the “levels of A2E in the retina” value in data set [1] (setting [5]) is “significantly lower”. The “levels of RBP4 in serum” value in data set [1] (setting [5]) was “lower”. The Tm/Tg ratio in data set [2] (indicative of moderate physical stability) is 1.37. The “crystallization temperature (Tc)” value in data set [2] (melt-quenched Compound 1) is “about 136 °C”. Also, the “glass transition temperature (Tg)” value in data set [2] (melt-quenched Compound 1) was “about 93 °C”. The solubility in data set [3] (2-propanol, organic solvent or mixture) is 4000 µg/mL (≈ 8.76 mM); in data set [3] (acetone, organic solvent or mixture), 2000 µg/mL (≈ 4.38 mM); in data set [3] (acetonitrile, organic solvent or mixture), < 1000 µg/mL; in data set [3] (dichloromethane, organic solvent or mixture), 2000 µg/mL (≈ 4.38 mM); in data set [3] (dimethylformamide, organic solvent or mixture), 15000 µg/mL (≈ 32.9 mM); in data set [3] (ethanol (absolute), organic solvent or mixture), 6000 µg/mL (≈ 13.1 mM). Further, the solubility in data set [3] (ethyl acetate, organic solvent or mixture) was 1000 µg/mL (≈ 2.19 mM); in data set [3] (ethyl ether, organic solvent or mixture) it was < 1000 µg/mL; in data set [3] (methanol, organic solvent or mixture), 6000 µg/mL (≈ 13.1 mM); in data set [3] (tetrahydrofuran, organic solvent or mixture) it was 6000 µg/mL (≈ 13.1 mM); in data set [3] (water) it was < 1000 µg/mL. Further, the efflux entry in the data set on Caco-2 monolayers (apical-to-basolateral and basolateral-to-apical) is on record as “no significant efflux”. Moreover, the absorption potential classification entry in the data set on Caco-2 monolayers (apical-to-basolateral and basolateral-to-apical (Absorption Systems)) is reported as “high”. In addition, in the data set on Caco-2 monolayers (based on Log D7.4 and Caco-2 data, possibly), the BCS classification entry is listed as “BCS Class II”. In addition, in data set [4], the “chemical stability at elevated temperatures, HPLC related substances” value was “impurity (with RRT=0.8 in HPLC) were present in all prepared samples except the control sample”.

As usually defined, the solubility is the concentration that dissolves in the medium under given conditions.
